Molecular target: T1, EP4 receptor (Homo sapiens, UniProt P35408)
T1 construct: expressed in transfected cells; host or cells: Flpin-CHO-EP4 cells (Flp-In CHO host, Chinese hamster ovary)
Test: Antagonist activity against EP4 receptor by cAMP assay
Assay type: cell-based
Settings: Flpin-CHO-EP4 cells, PGE2-stimulated cAMP; initial concentration 50 nM, dilution times 4
Description: (a) Antagonist Activity Against EP4 Receptor by cAMP Assay:
Experiment Methods: Inoculating Flpin-CHO-EP4 cells (8000 cells/well) into a 384-well plate (6007680-50, PE) with an assay buffer (1×HBSS+20 mM HEPES+0.1% BSA+500 μM IBMX). Preparing 8× compound working solution with the assay buffer. Adding 2.5 μL of the 8× compound working solution to each well in the cell plate according to the plate map and incubating at 37° C. for 10 min. Preparing 8×PGE2 (400 nM) with the assay buffer. Adding 2.5 μL of the 8×PGE2 per well in the cell plate and incubating at 37° C. for 30 min. Diluting the Eu-cAMP tracer (1/50) with a lysis buffer and adding 10 μL per well in the test plate. Diluting Ulight-anti-cAMP (1/150) with a lysis buffer and adding 10 μL per well in the test plate. Incubating at room temperature for 1 h. Reading wavelength signal values at 665 nm and 615 nm on the Envision 2105 plate reader.

T1 sequence (P35408 whole entry): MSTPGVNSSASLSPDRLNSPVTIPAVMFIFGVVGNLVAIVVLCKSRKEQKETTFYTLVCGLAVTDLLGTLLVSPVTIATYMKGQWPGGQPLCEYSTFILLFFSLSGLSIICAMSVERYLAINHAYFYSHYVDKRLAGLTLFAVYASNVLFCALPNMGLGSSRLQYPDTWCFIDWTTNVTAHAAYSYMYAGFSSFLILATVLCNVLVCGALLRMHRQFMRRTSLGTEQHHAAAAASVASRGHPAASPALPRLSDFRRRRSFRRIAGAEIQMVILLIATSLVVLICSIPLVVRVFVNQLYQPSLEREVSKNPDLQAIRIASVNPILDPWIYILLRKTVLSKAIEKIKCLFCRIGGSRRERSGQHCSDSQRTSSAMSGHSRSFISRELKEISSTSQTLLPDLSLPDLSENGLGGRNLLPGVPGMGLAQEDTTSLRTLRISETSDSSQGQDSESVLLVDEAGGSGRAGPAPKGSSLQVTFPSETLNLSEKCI

| Structure (SMILES) | IC50 [nM] |
| --- | --- |
| Cc1sc2ccn(Cc3ccc(C(F)(F)F)cc3)c2c1C(=O)NC1(c2ccc(C(=O)O)cc2)CC1 [Control compound] | 0.351 |
| Cc1sc2ccn(Cc3ccc(S(F)(F)(F)(F)F)cc3)c2c1C(=O)NC1(c2ccc(C(=O)O)cc2)CC1 [Example 1, 4-(1-{[2-methyl-4-(4-(pentafluorothio)benzyl)-4H-thieno[3,2-b]pyrrole-3-carbonyl]amino}-cyclopropyl)carboxylic acid] | 0.122 |
